Test results as given in US20240124428A1, “HETEROCYCLIC INHIBITORS OF PCSK9” (CARDIO THERAPEUTICS PTY LTD, priority 2020, published 2024).

Columns and labels:
[1] = Dedicated pharmacokinetic study, single oral dose; format: in vivo, C57BL/6 mice; conditions: plasma; for Cmax / Tmax / AUC(0-t): female, C57BL/6, mouse, mice; for Cmax / Tmax: PO 50 mg/kg study; for AUC(0-t): route and dose not given (PO 50 mg/kg study); for bioavailability: mouse, PO dose of 50 mg/kg, female C57BL/6 mice
Method: For dedicated pharmacokinetic analyses of compounds 29, 122 and 131, C57BL/6 mice (19-21 g, 10-12 weeks, female, purchased from Jihui Laboratory Animal Co. LTD) were given free access to food and water throughout the in-life phase of the study. Mice were orally dosed once with 50 mg/kg (10 mL/kg) of either compound 29, 122 and 131 with each compound formulated in 90% saline, 5% Solutol HS15 and 5% DMSO. At designated time points following dosing (t=0.083, 0.25, 0.5, 1, 2, 4, 8 and 24 h), the animals were restrained manually and ˜110 μL of blood/time point was collected into pre-cooled EDTA-K2 tubes via the facial vein. Blood samples were put on wet ice, then centrifuged at 2000 g for 5 min (4° C.) to obtain plasma within 15 min after sample collection. Plasma samples were subsequently stored at approximately −70° C. until analysis. Each sample was assayed for levels of 29, 122 and 131 by LC/MS/MS using a Triple Quadruple (6500+) system operating in a positive electrospray ionisation mode.
The mean plasma concentration-time profiles from dedicated pharmacokinetic analyses of compound 29, 122 and 131 are shown in FIG. 5A-C. Mice were orally dosed once with either 50 mg/kg of (A) compound 29, (B) compound 122 or (C) compound 131.

[2] = Cassette pharmacokinetic study, intravenous; format: in vivo, C57BL/6 mice; conditions: mice, route not given (IV study 0.4 mg/kg); for Vd: male, C57BL/6, mouse, plasma, read-out: VSS
Method: Cassette dosing is a technique primarily used in drug discovery efforts in non-clinical studies to collect pharmacokinetic data from multiple drug candidates in a single experiment.
C57BL/6 mice (21-22 g, 6-8 weeks, male, purchased from Jihui Laboratory Animal Co. LTD) were allowed access to food and water ad libitum throughout the in-life phase of the study. Mice were dosed intravenously (IV) with a cassette of 0.4 mg/kg of test compounds in 5% DMAC, 5% Solutol HS15 and 90% saline. At designated time points, the animals were restrained manually, and ˜110 μL of blood/time point was collected into pre-cooled EDTA-K2 tubes via the facial vein. Blood samples were centrifuged at 4° C. (2000 g, 5 min) to obtain plasma within 15 min after sample collection. Plasma samples were stored at approximately −70° C. until analysis. Samples were assayed for their levels of test compounds by LC/MS/MS using a Triple Quadruple (6500+) system operating in a positive electrospray ionisation mode.
The PK parameters of half-life (T1/2) and area under the curve (AUC) of the compounds were assessed following a single intravenous (IV) injection (0.4 mg/kg) in mice (male, C57BL/6).

CYP2D6 = molecular target: T1, CYP2D6 (Homo sapiens, UniProt P10635); assay: CYP inhibition assay, CYP2D6; format: in vitro ADME; conditions: probe Bufaralol (10 μM), human liver microsomes
T1 construct: using human liver microsomes; from tissue; host or cells: human liver microsomes
T1 sequence (P10635 whole entry): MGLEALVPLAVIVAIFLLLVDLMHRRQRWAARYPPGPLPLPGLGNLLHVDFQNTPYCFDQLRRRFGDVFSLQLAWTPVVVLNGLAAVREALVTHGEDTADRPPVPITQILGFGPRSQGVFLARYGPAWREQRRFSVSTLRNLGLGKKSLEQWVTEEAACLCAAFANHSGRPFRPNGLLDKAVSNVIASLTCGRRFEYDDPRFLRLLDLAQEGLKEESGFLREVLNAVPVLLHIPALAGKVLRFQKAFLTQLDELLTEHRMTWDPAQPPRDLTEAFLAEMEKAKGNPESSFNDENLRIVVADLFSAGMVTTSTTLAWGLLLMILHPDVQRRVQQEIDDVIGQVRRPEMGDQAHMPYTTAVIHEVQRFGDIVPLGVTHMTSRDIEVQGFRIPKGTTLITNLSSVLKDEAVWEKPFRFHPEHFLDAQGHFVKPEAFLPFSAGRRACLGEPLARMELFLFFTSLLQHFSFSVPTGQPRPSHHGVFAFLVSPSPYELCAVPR
Method: In vitro CYP (cytochrome P450) enzyme inhibition studies predict a drug candidate's predisposition to inhibit cytochrome P450 enzymes. The cytochrome P450 (CYP) inhibition assay was run against CYP2D6 and CYP3A4 isoforms using human liver microsomes. For CYP2D6, the probe substrates was Bufaralol (10 μM) and the positive control was Quinidine (2.5 μM). Midazolam (5 μM) was chosen as the probe substrate for CYP3A4 and Ketocanazole (2.5 μM) was used as the positive control inhibitor. To increase the throughput of the assay, one concentration (10 μM) was tested. For analysis via LC-MS, internal standards of 1-OH-Bufuralol-maleate-[D9] for CYP2D6 and 1′-OH-Midazolam-13C3 for CYP3A4 were used.

APOE*3-Leiden.CETP mice = assay: In vivo efficacy study: compound 29 monotherapy; conditions: for reduction of total plasma cholesterol levels compared to the vehicle control: over a period of four weeks
Method: Female APOE*3-Leiden.CETP mice (˜10-14 weeks old) were obtained from the SPF breeding stock at TNO-Metabolic Health Research (Leiden).
Mice were housed in macrolon cages (maximum of 6 mice per cage) in clean-conventional animal rooms (relative humidity 50-60%, temperature ˜21° C., light cycle 7 am to […]). Mice were fed a semi-synthetic western type diet with 15% saturated fat and 0.15% (w/w) cholesterol and were provided with heat-sterilized tap water and food ad libitum.
Forty female APOE*3-Leiden.CETP mice were allowed to acclimate to these conditions for a 3 week run-in period prior to the removal of 8 low-responder mice. […] In the final week of the run-in diet, all mice received vehicle solution (5% DMSO, 5% Solutol HS15, 90% saline) twice daily by oral gavage to accustom the animals to the procedure. After matching, mice received vehicle solution only (Group 1) or compound 29 in vehicle solution (Groups 2, 3 and 4) for the remainder of the study by twice daily administration using oral gavage in a volume of 5 mL/kg body weight. On days 0, 3, 7, 14, 21 and 28 of treatment, blood samples were taken after 4 h of fasting, from which EDTA plasma was collected and used for measurement of plasma total cholesterol. Lipoprotein profiles were determined on day 0, 14 and 28 in group pooled plasma samples using an equal volume of plasma per mouse. On day 28, directly after the last blood sampling point, mice were sacrificed via CO2 asphyxiation, fasted. At sacrifice, EDTA-plasma samples were obtained via heart puncture.
EDTA plasma blood samples were obtained after 4 h fasting. Animals were placed under a red light lamp for at least 10 minutes. The tail was fixed and the mice were allowed to move freely during blood collection and were not fixed to avoid additional stress. […]
Total plasma cholesterol and triglyceride levels were determined using a […] from Roche.
Analyses were performed in samples pooled per group. Cholesterol levels were measured using a “Cholesterol CHOD-PAP” kit from Roche.

| Cmax [1] [ng/mL] | Tmax [1] [h] | AUC(0-t) [1] [ng·h/mL] | bioavailability [1] [%] | Vd [2] [L/kg] | inhibition at 10 µM (CYP2D6) [%] | VSS [2] [L/kg] | Structure (SMILES) | plasma PCSK9 levels (APOE*3-Leiden.CETP mice; 30 and 50 mg/kg bid oral, over four weeks) | reduction of total plasma cholesterol levels compared to the vehicle control (APOE*3-Leiden.CETP mice; oral dosing 30 mg/kg) | reduction of total plasma cholesterol levels compared to the vehicle control (APOE*3-Leiden.CETP mice; oral dosing 50 mg/kg) [%] |
| --- | --- | --- | --- | --- | --- | --- | --- | --- | --- | --- |
| 10800 | 4 | 173000 | 75 | 1.29 | 25.6 |  | Cc1ccc(-c2cc(CN3CCC(F)(F)[C@H](N)C3)cc(NC(=O)c3cc(-c4ccccc4)ccn3)c2)cn1 [Compound 122] |  |  |  |
| 1480 | 2 | 8130 | 40 |  | 69.8 | 14.7 | Cc1cn(-c2cc(CN3CCC[C@H](N)C3)cc(NC(=O)c3cc(-c4ccccc4)ccn3)c2)cn1 [compound 29, (S)—N-(3-((3-aminopiperidin-1-yl)methyl)-5-(4-methyl-1H-imidazol-1-yl)phenyl)-4-phenylpicolinamide] | increase in plasma PCSK9 levels | more than 30% | > 50 |
| 6740 | 1 | 98500 | 54 | 3.25 | 11.4 |  | Cc1cnc(C(=O)Nc2cc(CN3CCC(F)(F)[C@H](N)C3)cc(-c3ccc(C(F)(F)F)nc3)c2)cc1-c1ccccc1 [compound 131] |  |  |  |
